Test results taken from patent US20010044425A1, “Compositions useful in the treatment of diseases of connective tissues” (priority 2000, published 2001).
Entries after “also recorded” stand apart in the source; their conditions may differ. Where two headings read alike, the source gives them in different places.

Test system: cartilage precursor cells from the developing limb bud of normal chick embryos
Assay: Cartilage development in micromass cultures of cartilage precursor cells
Format: cell-based
[1] = varying doses of the salt added to basic culture medium (about 0.6 μg/ml ferrous sulphate, about 75 μg/ml ascorbic acid) vs control group without addition, FIG. 2, FIG. 4

With `O=C1O[C@H]([C@@H](O)CO)C(O)=C1O` [ascorbic acid] the “cartilage development (amount of cartilage produced)” value (from here on “cartilage development”) (ascorbic acid 75 or 150 μg/ml added vs control with no ascorbic acid added, FIG. 1) was “significantly enhances cartilage development in a dose-dependent manner”.
With `O=S(=O)([O-])[O-].[Co+2]` [cobalt (II) sulphate] the “cartilage development” value was “No statistically significant increase in cartilage development; also recorded: significantly reduce the amount of cartilage produced in a dose-dependent manner”.
In the case of `O=S(=O)([O-])[O-].O=S(=O)([O-])[O-].O=S(=O)([O-])[O-].[Fe+3].[Fe+3]` [ferric sulphate], the “cartilage development” value is reported as “no statistically significant difference”.
In the case of `O=C([O-])/C=C/C(=O)[O-].[Fe+2]` [ferrous fumarate], the “cartilage development” value [1] is reported as “significantly enhanced cartilage production”.
With `O=S(=O)([O-])[O-].[Fe+2]` [ferrous sulphate] the “cartilage development” value was “significantly enhanced cartilage development in a dose-dependent manner” and the “cartilage production when combined with ascorbic acid” value was “significantly enhanced the cartilage production”.
`O=S(=O)([O-])[O-].[K+].[K+]` [potassium sulphate] was tested, and the “cartilage development” value was “No statistically significant increase in cartilage development”.
`O=S(=O)([O-])[O-].[Zn+2]` [zinc sulphate] was tested, and the “cartilage development” value was “no statistically significant increase in cartilage development”.
For ferrous ascorbate, the “cartilage development” value [1] was “significantly enhanced cartilage production”.
